Key:
Type in all cases: in vivo
[1] = tested on: giant foxtail (Setaria faberii); experiment: Test A preemergence; settings: for Plant response rating, Foxtail, Giant: preemergence
How it was run: (§1)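 Visual injury, scored on a 0–100 scale relative to untreated controls, was recorded about 10 d after application. Treatments were a preemergence soil spray over planted seeds or a postemergence spray on plants at the one- to two-leaf stage, 2 to 10 cm tall, all in loam soil–sand blend in the greenhouse.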

[2] = tested on: pigweed (Amaranthus retroflexus); experiment: Test A preemergence; settings: for Plant response rating, Pigweed: preemergence
Kochia (Kochia scoparia) [3] = experiment: Test A preemergence; settings: for Plant response rating, Kochia: preemergence
How it was run: as §1

[4] = tested on: barnyardgrass (Echinochloa crus-galli); experiment: Test A preemergence; settings: for Plant response rating, Barnyardgrass: preemergence
How it was run: as §1

[5] = tested on: ryegrass, Italian (Italian ryegrass, Lolium multiflorum); experiment: Test A preemergence; settings: for Plant response rating, Ryegrass, Italian: preemergence
How it was run: as §1

[6] = tested on: ragweed (common ragweed, Ambrosia elatior); experiment: Test A preemergence; settings: for Plant response rating, Ragweed: preemergence
How it was run: as §1

[7] = tested on: giant foxtail (Setaria faberii); experiment: Test A postemergence; settings: postemergence
How it was run: as §1

[8] = tested on: Galium (catchweed bedstraw, Galium aparine); experiment: Test A postemergence; settings: postemergence
How it was run: as §1

[9] = tested on: pigweed (Amaranthus retroflexus); experiment: Test A postemergence; settings: postemergence
How it was run: as §1

corn (Zea mays) = experiment: Test A postemergence; settings: postemergence
How it was run: as §1

[10] = tested on: wheat (Triticum aestivum); experiment: Test A postemergence; settings: postemergence
How it was run: as §1

Kochia (Kochia scoparia) [11] = experiment: Test A postemergence; settings: postemergence
How it was run: as §1

[12] = tested on: barnyardgrass (Echinochloa crus-galli); experiment: Test A postemergence; settings: postemergence
How it was run: as §1

[13] = tested on: ryegrass, Italian (Italian ryegrass, Lolium multiflorum); experiment: Test A postemergence; settings: postemergence
How it was run: as §1

[14] = tested on: ragweed (common ragweed, Ambrosia elatior); experiment: Test A postemergence; settings: postemergence
How it was run: as §1

[15] = tested on: blackgrass (Alopecurus myosuroides); experiment: Test A postemergence; settings: postemergence
How it was run: as §1

rice (Oryra sativa) = experiment: Test B flooded paddy test; settings: Flood, 0 to 100 scale where 0 is no effect and 100 is complete control, 13 to 15 d
How it was run: (§2)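 Response scored visually against untreated controls, 0 = no effect and 100 = complete control, 13–15 d after treatment in the greenhouse. Compounds added to paddy water held 3 cm above soil surface. Treatment given at 2-leaf stage.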

[16] = tested on: sedge, umbrella (small-flower umbrella sedge, Cyperus difformis); experiment: Test B flooded paddy test; settings: Flood, 0 to 100 scale where 0 is no effect and 100 is complete control, 13 to 15 d
How it was run: as §2

[17] = tested on: barnyardgrass (Echinochloa crus-galli); experiment: Test B flooded paddy test; settings: Flood, 0 to 100 scale where 0 is no effect and 100 is complete control, 13 to 15 d
How it was run: as §2

[18] = tested on: ducksalad (Heteranthera limosa); experiment: Test B flooded paddy test; settings: Flood, 0 to 100 scale where 0 is no effect and 100 is complete control, 13 to 15 d
How it was run: as §2

[19] = 125 g ai/ha, visual rating after approx. 10 d, 0 to 100 scale where 0 is no effect and 100 is complete control
[20] = 500 g ai/ha, 0 to 100 scale, 0 = no effect, 100 = complete control
[21] = 125 g ai/ha, visual injury after approximately 10 d, 0 to 100 scale (0 no effect, 100 complete control)
[22] = 500 g ai/ha, visual injury, 0 to 100 scale (0 no effect, 100 complete control), approx. 10 d
[23] = 125 g ai/ha, 0 to 100 scale (0 no effect, 100 complete control)
[24] = Preemergence, 500 g ai/ha, visual injury approx. 10 d
[25] = 125 g ai/ha, visual injury rating on 0 to 100 scale (0 no effect, 100 complete control), approx. 10 d
[26] = 500 g ai/ha, 0 to 100 scale, 0 no effect, 100 complete control

O=C1NCC(c2cccc(OC(F)(F)C(F)F)c2)C1C(=O)Nc1ccccc1Cl (racemic) [Compound 699]
Plant response rating, Foxtail, Giant [1, 19]: 90 | Plant response rating, Foxtail, Giant [1, 20]: 90 | Plant response rating, Pigweed [2, 19]: 30 | Plant response rating, Pigweed [2, 20]: 50 | Plant response rating, Kochia (Kochia (Kochia scoparia) [3]; [19]): 0 | Plant response rating, Kochia (Kochia (Kochia scoparia) [3]; [20]): 70 | Plant response rating, Barnyardgrass [4, 19]: 90 | Plant response rating, Barnyardgrass [4, 20]: 90 | Plant response rating, Ryegrass, Italian [5, 19]: 20 | Plant response rating, Ryegrass, Italian [5, 20]: 40 | Plant response rating, Ragweed [6, 19]: 0 | Plant response rating, Ragweed [6, 20]: 70 | Plant response rating, Foxtail, Giant [7, 21]: 50 | Plant response rating, Foxtail, Giant [7, 22]: 80 | Plant response rating, Galium [8, 21]: 50 | Plant response rating, Galium [8, 22]: 60 | Plant response rating, Pigweed [9, 21]: 20 | Plant response rating, Pigweed [9, 22]: 20 | Plant response rating, Corn (corn (Zea mays); [21]): 30 | Plant response rating, Corn (corn (Zea mays); [22]): 60 | Plant response rating, Wheat [10, 21]: 0 | Plant response rating, Wheat [10, 22]: 20 | Plant response rating, Kochia (Kochia (Kochia scoparia) [11]; [21]): 30 | Plant response rating, Kochia (Kochia (Kochia scoparia) [11]; [22]): 50 | Plant response rating, Barnyardgrass [12, 21]: 50 | Plant response rating, Barnyardgrass [12, 22]: 80 | Plant response rating, Ryegrass, Italian [13, 21]: 0 | Plant response rating, Ryegrass, Italian [13, 22]: 30 | Plant response rating, Ragweed [14, 21]: 0 | Plant response rating, Ragweed [14, 22]: 30 | Plant response rating, Blackgrass [15, 21]: 30 | Plant response rating, Blackgrass [15, 22]: 60 | Plant response rating, Rice (rice (Oryra sativa); 500 g ai/ha): 0 | Plant response rating, Sedge, Umbrella ([16]; 500 g ai/ha): 0 | Plant response rating, Barnyardgrass ([17]; 500 g ai/ha): 60 | Plant response rating, Ducksalad ([18]; 500 g ai/ha): 90

Cc1cc(C2CN(C)C(=O)C2C(=O)Nc2ccccc2S(C)(=O)=O)ccc1F (stereo not drawn) [Compound 405]
Plant response rating, Foxtail, Giant [1, 23]: 90 | Foxtail, Giant plant response rating (0 to 100 scale, 0 is no effect, 100 is complete control) [1, 24]: 90 | Plant response rating, Pigweed [2, 23]: 50 | Pigweed plant response rating (0 to 100 scale, 0 is no effect, 100 is complete control) [2, 24]: 60 | Plant response rating, Kochia (Kochia (Kochia scoparia) [3]; [23]): 50 | Kochia plant response rating (0 to 100 scale, 0 is no effect, 100 is complete control) (Kochia (Kochia scoparia) [3]; [24]): 70 | Plant response rating, Barnyardgrass [4, 23]: 90 | Barnyardgrass plant response rating (0 to 100 scale, 0 is no effect, 100 is complete control) [4, 24]: 90 | Plant response rating, Ryegrass, Italian [5, 23]: 0 | Ryegrass, Italian plant response rating (0 to 100 scale, 0 is no effect, 100 is complete control) [5, 24]: 30 | Plant response rating, Ragweed [6, 23]: 20 | Ragweed plant response rating (0 to 100 scale, 0 is no effect, 100 is complete control) [6, 24]: 70 | Foxtail, Giant plant response rating [7, 25]: 80 | Plant response rating, Foxtail, Giant [7, 26]: 80 | Galium plant response rating [8, 25]: 60 | Plant response rating, Galium [8, 26]: 60 | Pigweed plant response rating [9, 25]: 40 | Plant response rating, Pigweed [9, 26]: 50 | Corn plant response rating (corn (Zea mays); [25]): 30 | Plant response rating, Corn (corn (Zea mays); [26]): 80 | Wheat plant response rating [10, 25]: 60 | Plant response rating, Wheat [10, 26]: 80 | Kochia plant response rating (Kochia (Kochia scoparia) [11]; [25]): 40 | Plant response rating, Kochia (Kochia (Kochia scoparia) [11]; [26]): 50 | Barnyardgrass plant response rating [12, 25]: 90 | Plant response rating, Barnyardgrass [12, 26]: 90 | Ryegrass, Italian plant response rating [13, 25]: 30 | Plant response rating, Ryegrass, Italian [13, 26]: 60 | Ragweed plant response rating [14, 25]: 0 | Plant response rating, Ragweed [14, 26]: 50 | Blackgrass plant response rating [15, 25]: 50 | Plant response rating, Blackgrass [15, 26]: 60 | Plant response rating, Rice (rice (Oryra sativa); 250 g ai/ha): 0 | Plant response rating, Sedge, Umbrella ([16]; 250 g ai/ha): 0 | Plant response rating, Barnyardgrass ([17]; 250 g ai/ha): 70 | Plant response rating, Ducksalad ([18]; 250 g ai/ha): 85

Source: patent US12077503B2, “Substituted cyclic amides and their use as herbicides” (FMC CORPORATION, priority 2015, dated 2024)
